# Laboratory results: patent publication US10683286B2, “Furazan-3-carboxylic acid derivatives and use thereof in treatment of cancer” (FREIE UNIVERSITAET BERLIN, priority 2016, dated 2020)
# “Also recorded” adds a separate entry of the source. Like-named read-outs stand apart in the source and are kept apart here.
# What was measured:
# [1] = biological target: T1, STAT5b-SH2 domain (Homo sapiens, UniProt P51692); assay: Competitive fluorescence polarization (FP) assay, STAT5b-SH2 domain; details: for activity / binding to the STAT5-SH2 domain: in words
# T1 sequence (P51692 136-703): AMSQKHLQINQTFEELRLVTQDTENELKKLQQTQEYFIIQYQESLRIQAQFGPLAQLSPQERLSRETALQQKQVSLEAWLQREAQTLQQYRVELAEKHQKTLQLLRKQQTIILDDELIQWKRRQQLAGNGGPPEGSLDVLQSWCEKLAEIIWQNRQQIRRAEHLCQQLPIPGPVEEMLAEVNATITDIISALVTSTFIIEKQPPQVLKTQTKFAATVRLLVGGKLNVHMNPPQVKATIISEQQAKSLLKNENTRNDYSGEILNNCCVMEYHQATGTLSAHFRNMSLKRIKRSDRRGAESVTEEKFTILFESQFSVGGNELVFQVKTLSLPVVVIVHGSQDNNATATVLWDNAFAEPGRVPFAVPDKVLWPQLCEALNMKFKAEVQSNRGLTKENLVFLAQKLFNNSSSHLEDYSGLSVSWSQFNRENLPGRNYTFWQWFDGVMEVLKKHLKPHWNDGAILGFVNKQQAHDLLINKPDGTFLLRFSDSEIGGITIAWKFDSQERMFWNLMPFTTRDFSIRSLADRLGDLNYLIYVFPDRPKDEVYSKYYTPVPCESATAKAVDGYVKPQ
# Protocol: The ChemBioNet fragment collection composed in accordance with the substructure composition of the World Drug Index (WDI) was screened both for enhancing and inhibiting fragments of the phosphopeptide-STAT5 interaction.
# The clone for Stat5b expression was kindly provided by Thorsten Berg (MPI, Martinsried). Expression of that truncated version of Stat5b (aa 136-703) cloned into a modified pQE70, with N-terminal MBP-tag and C-terminal His-tag was conducted on autoinduction medium (overnight express/Novagen). Cells were grown to an optical density (O.D.) of 0.3 at 37° C., then the temperature was reduced to 20° C. for further 48 h of expression. […] The protein was purified by Ni-chelating chromatography followed by gel filtration (Superdex 200/10 mM HEPES pH 7.8, 100 mM NaCl, 1 mM EDTA, 1 mM DTT, 10% glycerol). A yield of 15 mg MBP-Stat5b-His per liter of culture was obtained and aliquots (200 μl of 3.2 mg/ml) were quick-frozen and stored at −80° C., ready for use.
# 17000 compounds from the (FMP) ChemBioNet library were tested in a competitive-based fluorescence polarization (FP) assay to investigate the ability of compounds to bind to STAT5b-SH2 domain by displacing respective fluorophore-labeled peptides (5-carboxyfluorescein-GY (PO3H2) LSLPPW-NH2). The peptide purity was >95% and the screening were performed at room temperature. The final concentration of buffer components used was 10 mM HEPES (pH 7.5), 1 mM EDTA, 0.1% Igepal CA-630, 50 mM NaCl, and 5% DMSO. The final concentration of protein used was at 65 nM which correspond to the dissociation constants (Kd) for the individual protein-peptide interactions in assay buffer. The protein was first added to the black 384 well plate (Corning 3676) followed by test compounds and fluorophore-labeled peptide. The plates were centrifuged, and measured using Safire^2 well plate reader (Tecan, Crailsheim, Germany) after 15 minutes incubation at room temperature. […] For the analysis of the data GraphPad Prism 5 was used. Ligand efficiencies (LE) were calculated using equation derived as followed. LE=−ΔG°/HA with (ΔG°) is the standard free energy of binding in KJ and HA is the number of non-hydrogen atoms.
# [2] = test system: Pim1 kinase, cyclin D1 and Bcl-xl; assay: Expression of transcriptional targets of STAT5, Western blot in BaF3/FLT3-ITD cells; type: cell-based, murine; details: BaF3/FLT-ITD cells, after 6 h
# Text: (FIGS. 7A, B). Next, the functional effects of STAT5 inhibitors (6) and (15) on cellular transcription were investigated. For the purpose, the expression of three transcriptional targets of STAT5, namely Pim1 kinase, cyclin D1 and Bcl-xl, which play essential roles in cell cycle progression and survival, was monitored by Western Blotting (FIGS. 6A, B).
# [3] = test system: BaF3/FLT3-ITD cells; assay: Cell proliferation assay (Alamar blue); type: cell-based, murine; details: for inhibition of cell proliferation: 48 h, Alamar blue, FLT3-ITD cells
# Protocol: Having proven the functional inhibition of STAT5 as a transcription factor, the effect of STAT5 inhibitors on the proliferation of cancer cells carrying the common FLT3-ITD mutation was investigated. Cells were incubated for 48 h and cell proliferation was quantified by the Alamar blue assay (FIG. 5). […] For comparison, we have tested both compounds on non-STAT5-dependent cell lines and the cytotoxicity effect were negligible up to 500 μM. (FIG. S9).
# (§1) The effect of compounds on cell lines was evaluated by In Vitro Toxicology Assay Kit, Resazurin based with indicator dye Alamar Blue (Sigma). Adherent and suspension cells were plated at 5×10^3 per well and 1×10^4 per well respectively in triplicate in 96-well plates and incubated in medium containing 10% FBS. For adherent cell, the complete medium was replaced after 24 hours and incubated with test medium containing vehicle control or serial concentration of compounds for 48 hours at 37° C. The remaining wells in the periphery of the microtiter well plate were added PBS and not used to avoid evaporation effects. Alamar Blue was then added, and all plates were incubated at 37° C., and a colorimetric change was measured according to the methods provided by the provided protocol.
# [4] = test system: STAT5; assay: STAT5 phosphorylation, Western blot in BaF3/FLT3-ITD cells; details: for tyrosine phosphorylation of STAT5, dose dependence: 6 h treatment; for tyrosine phosphorylation of STAT5, dose dependence / overall expression of endogenous STAT5 / reduction of STAT5 phosphorylation: BaF3/FLT3-ITD; for IC50: read-out: IC50 of STAT5 phosphorylation inhibition, BaF3/FLT3-ITD cells; for IC50 / reduction of STAT5 phosphorylation: 6 h
# Protocol: At first, the ligand-mediated inhibition of STAT5 phosphorylation at conserved tyrosine residues (Tyr694 and Tyr699) was investigated, which is initiated by the binding of the SH2 domain to phosphorylated cell surface receptors. […] After 6 h cells were harvested to determine the level of STAT5 phosphorylation using phosphotyrosine-specific antibodies (FIGS. 4A-B).
# (§2) Cells were seeded at 0.5×10^6 in 6 well plate and allowed to grow overnight followed by 6 hour incubation with test compounds (0.1% DMSO) before protein extraction with M-PER™ Mammalian Protein Extraction Reagent (Pierce) containing 1% (vol/vol) complete protease inhibitor cocktail (Roche Molecular Biochemicals) and 1% (vol/vol) phosphate inhibitor cocktail (Sigma). For Western blotting, 15 μg of protein from each sample were then separated on a 10% SDS-PAGE and transferred to a PVDF membrane. The blots were blocked with TBST buffer (20 mM Tris-HCl [pH 7.4], 140 mM sodium chloride, and 0.05% Tween 20) containing 5% BSA at room temperature for 1 hour, washed 3 times in TBST buffer, and incubated with primary antibody overnight at 4° C. The membranes were then incubated with HRP-conjugated secondary antibody at room temperature for 1 hour. The reaction products were detected using Syngene Pxi4 imager and quantified by Image J.
# [5] = biological target: T2, STAT3 (Mus musculus, UniProt P42227); assay: STAT3 phosphorylation and expression in cells; type: cell-based; details: selectivity in cells
# T2 construct: endogenous in cells; context BaF3/FLT3-ITD
# T2 sequence (P42227 whole entry): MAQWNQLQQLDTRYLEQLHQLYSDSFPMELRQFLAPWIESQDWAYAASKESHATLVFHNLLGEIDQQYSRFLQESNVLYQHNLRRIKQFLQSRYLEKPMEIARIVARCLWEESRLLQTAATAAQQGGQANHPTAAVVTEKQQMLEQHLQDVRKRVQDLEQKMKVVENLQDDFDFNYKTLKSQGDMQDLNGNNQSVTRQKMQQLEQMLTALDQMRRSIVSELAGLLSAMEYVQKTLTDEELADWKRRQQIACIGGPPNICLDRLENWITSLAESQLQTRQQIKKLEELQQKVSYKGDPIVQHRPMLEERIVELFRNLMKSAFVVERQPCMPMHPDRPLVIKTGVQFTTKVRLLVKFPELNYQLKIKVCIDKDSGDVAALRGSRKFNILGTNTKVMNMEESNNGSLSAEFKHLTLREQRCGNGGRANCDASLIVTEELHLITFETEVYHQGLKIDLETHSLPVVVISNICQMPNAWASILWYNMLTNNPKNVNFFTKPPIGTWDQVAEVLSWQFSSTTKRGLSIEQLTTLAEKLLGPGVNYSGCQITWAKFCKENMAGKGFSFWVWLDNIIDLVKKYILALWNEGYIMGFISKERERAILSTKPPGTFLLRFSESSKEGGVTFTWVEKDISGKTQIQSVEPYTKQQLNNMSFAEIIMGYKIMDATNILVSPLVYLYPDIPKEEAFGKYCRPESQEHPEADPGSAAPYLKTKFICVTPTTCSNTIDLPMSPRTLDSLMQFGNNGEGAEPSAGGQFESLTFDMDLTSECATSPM
# Protocol: as §2
# [6] = test system: non-STAT5-dependent cell lines; assay: Cytotoxicity on non-STAT5-dependent cell lines; type: cell-based; details: up to 500 μM
# Protocol: Carol Stocking (University Hospital Hamburg-Eppendorf). […] Cells were incubated at 37° C., 5% CO2 atmosphere.
# as §1
# [7] = Solubility; type: physicochemical; details: compared to the 5-aryl-substituted tetrazole
"LE ([1]; Table 1, ligand efficiency)",Structure (SMILES),Kd [1],Ki [1],LE [1],also measured
,O=C(O)c1nonc1NCn1nnnc1-c1cccc(F)c1 [Compound 27],0.62 µM,0.62 ± 0.09 µM,1.61,
,O=C(O)c1nonc1NCn1nnnc1-c1ccc(F)cc1 [Compound 28],,,1.42,
1.49 kJ/mol* atom#,O=C(O)c1nonc1NCn1cccn1 [Compound 13],122 µM,122 ± 7.3 µM,,
,COC(=O)c1nonc1NCn1nnnc1-c1cccc(C(F)(F)F)c1 [Compound 20],,9.5 ± 1.8 µM,1.10,
,O=C(O)c1nonc1NCc1ccccn1 [Compound 11],,> 500 µM,,activity / binding to the STAT5-SH2 domain [1]: completely inactive
1.12 kJ/mol* atom#,O=C(O)c1nonc1NCn1nnc2ccccc21 [Compound 12],,188 ± 25 µM,,activity / binding to the STAT5-SH2 domain [1]: completely inactive
,"O=C(O)c1nonc1NCn1nnnc1Cc1ccccc1 [Compound 30, 4-((5-Benzyl-1H-tetrazol-1-yl)-methylamino)-furazan-3-carboxylic Acid]",,8.6 ± 2 µM,1.31,reduction of STAT5 phosphorylation ([4]; 50 μM): clear reduction; also recorded: reduces STAT5 phosphorylation significantly; IC50 [4]: 30.8 µM; solubility [7]: strongly improved solubility
,O=C(O)c1nonc1NCn1nnnc1CCCc1ccccc1 [Compound 196],,,,"cellular activity (cell proliferation curves, FIG. 8) [3]: significant cellular activity"
,COC(=O)c1nonc1NCn1nnnc1-c1cccc([N+](=O)[O-])c1 [Compound 22],,> 500 µM,,
,O=C(O)c1nonc1NCn1nnnc1-c1cccc(OC(F)(F)F)c1 [Compound 26],,3 ± 0.7 µM,1.21,
1.30 kJ/mol* atom#,CCCCOC(=O)c1nonc1NCn1cnnn1 [Compound 7],145 µM,48.2 ± 5 µM,,
,COC(=O)c1nonc1NCn1nnnc1-c1cccc(OC(F)(F)F)c1 [Compound 25],,16.7 ± 4.3 µM,1.01,
,COC(=O)c1nonc1NCn1nnnc1-c1ccc(C(F)(F)F)cc1 [Compound 18],,94.9 ± 2.1 µM,0.88,
2.14 kJ/mol* atom#,"Nc1nonc1C(=O)O [Compound 4, 4-Amino-furazan-3-carboxylic Acid]",,,,activity / binding to the STAT5-SH2 domain [1]: inactive
1.58 kJ/mol* atom#,"COC(=O)c1nonc1NCn1cnnn1 [Compound 6, Methyl 4-((1H-tetrazol-1-yl)-methylamino)-furazan-3-carboxylate]",76 µM,37.4 ± 1.2 µM,,"Pim1, cyclin D1 and Bcl-xL expression [2]: dose dependent reduction; inhibition of cell proliferation [3]: clear dose-dependent inhibition; reduction of STAT5 phosphorylation ([4]; 25 μM): clear reduction; tyrosine phosphorylation of STAT5, dose dependence [4]: decrease the tyrosine phosphorylation of STAT5 in a dose dependent manner; overall expression of endogenous STAT5 [4]: no effect; IC50 [4]: 44.2 µM; STAT3 phosphorylation [5]: negligible effects; endogenous STAT3 expression [5]: negligible effects; cytotoxicity effect [6]: negligible"
,O=C(O)c1nonc1NCn1nnnc1CCOc1ccccc1 [Compound 104],,,,"cellular activity (cell proliferation curves, FIG. 8) [3]: significant cellular activity"
,COC(=O)c1nsnc1NCn1cnnn1 [Compound 8],,> 500 µM,,activity / binding to the STAT5-SH2 domain [1]: inactive
,O=C(O)c1nonc1NCn1nnnc1-c1ccc(-c2ccccc2)cc1 [Compound 29],0.8 µM,0.8 ± 0.2 µM,1.30,

Structure (SMILES),"LE ([1]; Table 1, ligand efficiency)",Kd [1],Ki [1],LE [1],also measured
CC(=O)OC(C)OC(=O)c1nonc1NCn1cnnn1 (stereo not shown) [Compound 15],1.45 kJ/mol* atom#,14 µM,4.6 ± 1.7 µM,,"Pim1, cyclin D1 and Bcl-xL expression [2]: dose dependent reduction; inhibition of cell proliferation [3]: clear dose-dependent inhibition; tyrosine phosphorylation of STAT5, dose dependence [4]: decrease the tyrosine phosphorylation of STAT5 in a dose dependent manner; overall expression of endogenous STAT5 [4]: no effect; IC50 [4]: 68.9 µM; STAT3 phosphorylation [5]: negligible effects; endogenous STAT3 expression [5]: negligible effects; cytotoxicity effect [6]: negligible"
